{"source": "patent US8338451B2", "about": "“Polysubstituted derivatives of 2-heteroaryl-6-phenylimidazo[1,2-a]pyridines, and preparation and therapeutic use thereof” (Sanofi, priority 2008, dated 2012)", "target": "T1, mouse Nurr1 receptor (Mus musculus, UniProt Q06219)", "T1 construct": "a cell line (N2A) endogenously expressing the mouse Nurr1 receptor; host or cells: Neuro-2A (N2A) mouse neuroblastoma cells stably transfected with 8NBRE-luciferase", "T1 sequence (Q06219 whole entry)": "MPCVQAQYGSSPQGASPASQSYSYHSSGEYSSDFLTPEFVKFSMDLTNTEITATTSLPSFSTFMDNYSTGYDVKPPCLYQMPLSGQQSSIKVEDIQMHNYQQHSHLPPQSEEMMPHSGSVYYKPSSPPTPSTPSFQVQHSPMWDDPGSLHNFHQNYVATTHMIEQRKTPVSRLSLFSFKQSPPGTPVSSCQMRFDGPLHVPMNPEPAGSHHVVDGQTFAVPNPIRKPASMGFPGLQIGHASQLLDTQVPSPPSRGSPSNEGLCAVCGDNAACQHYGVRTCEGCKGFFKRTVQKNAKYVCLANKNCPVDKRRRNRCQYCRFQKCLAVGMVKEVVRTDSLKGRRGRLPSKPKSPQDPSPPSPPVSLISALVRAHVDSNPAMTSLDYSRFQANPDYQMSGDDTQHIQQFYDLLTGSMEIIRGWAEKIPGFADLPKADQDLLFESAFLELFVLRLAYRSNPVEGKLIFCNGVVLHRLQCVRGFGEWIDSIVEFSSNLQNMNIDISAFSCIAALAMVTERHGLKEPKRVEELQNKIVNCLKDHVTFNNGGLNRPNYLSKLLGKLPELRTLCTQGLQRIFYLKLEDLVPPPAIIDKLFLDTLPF", "experiment": "In vitro activity on N2A cells: NBRE-luciferase reporter (NOT/Nurr1 modulation)", "format": "cell-based", "conditions": "N2A (Neuro-2A) cells stably transfected with 8NBRE-luciferase, 24 hours incubation", "experimental": "Evaluation of the In Vitro Activity on N2A Cells The activity of the compounds according to the invention was evaluated on a cell line (N2A) endogenously expressing the mouse Nurr1 receptor and stably transfected with the NOT binding response element (NBRE) coupled to the luciferase reporter gene. The EC50 values are between 0.01 and 10 μM. The tests were carried out according to the procedure described below. The Neuro-2A cell line comes from a standard commercial source (ATCC). The Neuro-2A clone was obtained from a spontaneous tumour originating from a mouse A albino strain, by R. J Klebe et el. This Neuro-2A line is then stably transfected with 8NBRE-luciferase. The N2A-8NBRE cells are cultured to confluence in 75 cm^2 culture flasks containing DMEM supplemented with 10% of foetal calf serum, 4.5 g/l of glucose and 0.4 mg/ml of geneticin. After one week of culture, the cells are recovered with 0.25% trypsin for 30 seconds, and then resuspended in DMEM without phenol red, containing 4.5 g/l of glucose and 10% of Hyclone defatted serum, and deposited in white, transparent-bottom 96-well plates. The cells are deposited at a rate of 60 000 per well in 75 μl for 24 hours before the addition of the products. […] On the day of the measurement, an equivalent volume (100 μl) of Steadylite is added to each well, followed by a waiting period of 30 minutes in order to obtain complete lysis of the cells and maximum production of the signal. The plates are then measured in a microplate luminescence counter after having been sealed with an adhesive film. […] Each product concentration is diluted beforehand in culture medium before incubation with the cells thus containing a final concentration of 0.625% of DMSO.", "note": "pEC50: −log10 of the molar value."}
{"smiles": "CC(C)(O)c1cccc(-c2ccc3nc(-c4ccccn4)cn3c2)c1", "note": "[Compound 50, 2-[3-(2-pyridin-2-ylimidazo[1,2-a]pyridin-6-yl)phenyl]propan-2-ol]", "values": [{"measurement": "pEC50", "value": 6.69}]}
{"smiles": "OCc1c(F)cccc1-c1ccc2nc(-c3cccs3)cn2c1", "note": "[Compound 68, [2-fluoro-6-(2-thien-2-ylimidazo[1,2-a]pyridin-6-yl)phenyl]methanol]", "values": [{"measurement": "pEC50", "value": 7.70}]}
{"smiles": "OCc1cccc(-c2ccc3nc(-c4ccc5c(c4)OCO5)cn3c2)c1", "note": "[Compound 6, {3-[2-(1,3-benzodioxol-5-yl)imidazo[1,2-a]pyridin-6-yl]phenyl}methanol]", "values": [{"measurement": "pEC50", "value": 9.05}]}
{"smiles": "OCc1cccc(-c2ccc3nc(-c4cccnc4)cn3c2)c1", "note": "[Compound 7]", "values": [{"measurement": "pEC50", "value": 8.80}]}
{"smiles": "OCc1c(F)ccc(-c2ccc3nc(-c4cc5ccccc5o4)cn3c2)c1F", "note": "[Compound 79, [3-(2-benzofuran-2-ylimidazo[1,2-a]pyridin-6-yl)-2,6-difluorophenyl]methanol]", "values": [{"measurement": "pEC50", "value": 8.30}]}
{"smiles": "Cc1cc(-c2cn3cc(-c4cccc(C(C)(C)O)c4)ccc3n2)no1", "note": "[Compound 86, 2-{3-[2-(5-methylisoxazol-3-yl)imidazo[1,2-a]pyridin-6-yl]phenyl}propan-2-ol]", "values": [{"measurement": "pEC50", "value": 7.15}]}
{"smiles": "OCc1ccc(-c2ccc3nc(-c4coc5ccccc45)cn3c2)cc1", "note": "[Compound 24, [4-[2-(benzofuran-3-yl)imidazo[1,2-a]pyridin-6-yl]phenyl]methanol]", "values": [{"measurement": "pEC50", "value": 7.30}]}
